The NIST ThermoML archive (doi:10.1016/j.tca.2017.12.026)
Where “and” joins values, the source holds several entries; their conditions need not be identical. Identical values can stand only once. Numbers after ± are expanded uncertainties.

Experiments:
[1] = Crystal; DTA
[2] = Molar enthalpy of transition or fusion; details: Crystal; DSC

In the case of `OC[C@@H](O)[C@@H](O)[C@H](O)[C@H](O)CO` [D-mannitol], the Normal melting temperature [1] is reported as 165.73 ± 2 °C and 166.68 ± 2 °C and 165.74 ± 2 °C and the “Molar enthalpy of transition or fusion” value [2] is reported as 12.9 kcal/mol and 12.4 kcal/mol and 12.5 kcal/mol.
